Results published in patent US20260262643A1, “HERBICIDAL BENZOXAZINES” (FMC CORPORATION, priority 2022, published 2026).

What was measured:
kochia [1] = experiment: Test C postemergence; type: in vivo, Bassia scoparia; conditions: 10 days, 0 to 100 scale (0 no effect, 100 complete control)
How it was run: (§1)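 Visual injury ratings on a 0–100 scale (100 = complete control) were made against untreated controls 10 days after treatment in the greenhouse. Compounds, formulated with surfactant in non-phytotoxic solvent, were sprayed on soil preemergence or onto one- to two-leaf plants 2–10 cm tall postemergence.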

ragweed [2] = experiment: Test C preemergence; type: in vivo, Ambrosia artemisiifolia
How it was run: as §1

ryegrass, Italian [3] = experiment: Test C preemergence; type: in vivo, Lolium multiflorum
How it was run: as §1

soybean [4] = experiment: Test C preemergence; type: in vivo, Glycine max
How it was run: as §1

oat, wild [5] = experiment: Test C preemergence; type: in vivo, Avena fatua
How it was run: as §1

corn [6] = experiment: Test C postemergence; type: in vivo, Zea mays; conditions: 10 days, 0 to 100 scale (0 no effect, 100 complete control)
How it was run: as §1

wheat [7] = experiment: Test C postemergence; type: in vivo, Triticum aestivum; conditions: 10 days, 0 to 100 scale (0 no effect, 100 complete control)
How it was run: as §1

blackgrass [8] = experiment: Test C postemergence; type: in vivo, Alopecurus myosuroides; conditions: 10 days, 0 to 100 scale (0 no effect, 100 complete control)
How it was run: as §1

ragweed [9] = experiment: Test C postemergence; type: in vivo, Ambrosia artemisiifolia; conditions: 10 days, 0 to 100 scale (0 no effect, 100 complete control)
How it was run: as §1

pigweed, palmer [10] = experiment: Test C postemergence; type: in vivo, Amaranthus palmeri; conditions: 10 days, 0 to 100 scale (0 no effect, 100 complete control)
How it was run: as §1

barnyardgrass [11] = experiment: Test C preemergence; type: in vivo, Echinochloa crusgalli
How it was run: as §1

barnyardgrass [12] = experiment: Test C postemergence; type: in vivo, Echinochloa crusgalli; conditions: 10 days, 0 to 100 scale (0 no effect, 100 complete control)
How it was run: as §1

soybean [13] = experiment: Test C postemergence; type: in vivo, Glycine max; conditions: 10 days, 0 to 100 scale (0 no effect, 100 complete control)
How it was run: as §1

corn [14] = experiment: Test C preemergence; type: in vivo, Zea mays
How it was run: as §1

kochia [15] = experiment: Test C preemergence; type: in vivo, Bassia scoparia
How it was run: as §1

horseweed = experiment: Test C postemergence; type: in vivo, Erigeron canadensis; conditions: 10 days, 0 to 100 scale (0 no effect, 100 complete control)
How it was run: as §1

wheat [16] = experiment: Test C preemergence; type: in vivo, Triticum aestivum
How it was run: as §1

pigweed, palmer [17] = experiment: Test C preemergence; type: in vivo, Amaranthus palmeri
How it was run: as §1

sedge, umbrella = experiment: Test D flooded paddy test; type: in vivo, Cyperus difformis; conditions: 250 g ai/ha, applied to paddy water, visual rating after 13 to 14 days, scale 0 to 100 (0 no effect, 100 complete control)
How it was run: (§2)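 Visual ratings from 0, meaning no effect, to 100, meaning complete control, were assigned against untreated controls 13 to 14 days after compounds were added to the floodwater of pots kept 3 cm deep, with plants at the 2-leaf stage.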

blackgrass [18] = experiment: Test C preemergence; type: in vivo, Alopecurus myosuroides
How it was run: as §1

rice = experiment: Test D flooded paddy test; type: in vivo, Oryza sativa; conditions: 250 g ai/ha, applied to paddy water, visual rating after 13 to 14 days, scale 0 to 100 (0 no effect, 100 complete control)
How it was run: as §2

oat, wild [19] = experiment: Test C postemergence; type: in vivo, Avena fatua; conditions: 10 days, 0 to 100 scale (0 no effect, 100 complete control)
How it was run: as §1

barnyardgrass [20] = experiment: Test D flooded paddy test; type: in vivo, Echinochloa crus-galli; conditions: 250 g ai/ha, applied to paddy water, visual rating after 13 to 14 days, scale 0 to 100 (0 no effect, 100 complete control)
How it was run: as §2

ryegrass, Italian [21] = experiment: Test C postemergence; type: in vivo, Lolium multiflorum; conditions: 10 days, 0 to 100 scale (0 no effect, 100 complete control)
How it was run: as §1

galium = experiment: Test C postemergence; type: in vivo, Galium aparine; conditions: 10 days, 0 to 100 scale (0 no effect, 100 complete control)
How it was run: as §1

foxtail, giant [22] = experiment: Test C preemergence; type: in vivo, Setaria faberi
How it was run: as §1

ducksalad = experiment: Test D flooded paddy test; type: in vivo, Heteranthera limosa; conditions: 250 g ai/ha, applied to paddy water, visual rating after 13 to 14 days, scale 0 to 100 (0 no effect, 100 complete control)
How it was run: as §2

foxtail, giant [23] = experiment: Test C postemergence; type: in vivo, Setaria faberi; conditions: 10 days, 0 to 100 scale (0 no effect, 100 complete control)
How it was run: as §1

[24] = 500 g ai/ha, preemergence, 0 to 100 scale (0 no effect, 100 complete control)
[25] = Preemergence, 125 g ai/ha, 0 to 100 scale, 0 no effect, 100 complete control

Compound: Cc1cccc2c1OC(C(F)(F)F)CN2C(=O)c1ccnc(-n2cnc(C(C)C)n2)c1 (stereo not shown) [Compound 327]
- Plant response rating, Kochia (kochia [1]; 500 g ai/ha, postemergence): 90
- Plant response rating, Kochia (kochia [1]; Postemergence, 125 g ai/ha): 40
- Ragweed plant response rating (ragweed [2]; [24]): 30
- Plant response rating, Ragweed (ragweed [2]; [25]): 0
- Ryegrass, Italian plant response rating (ryegrass, Italian [3]; [24]): 100
- Plant response rating, Ryegrass, Italian (ryegrass, Italian [3]; [25]): 90
- Soybean plant response rating (soybean [4]; [24]): 100
- Plant response rating, Soybean (soybean [4]; [25]): 100
- Oat, Wild plant response rating (oat, wild [5]; [24]): 70
- Plant response rating, Oat, Wild (oat, wild [5]; [25]): 20
- Plant response rating, Corn (corn [6]; 500 g ai/ha, postemergence): 90
- Plant response rating, Corn (corn [6]; Postemergence, 125 g ai/ha): 70
- Plant response rating, Wheat (wheat [7]; 500 g ai/ha, postemergence): 30
- Plant response rating, Wheat (wheat [7]; Postemergence, 125 g ai/ha): 20
- Plant response rating, Blackgrass (blackgrass [8]; 500 g ai/ha, postemergence): 90
- Plant response rating, Blackgrass (blackgrass [8]; Postemergence, 125 g ai/ha): 30
- Plant response rating, Ragweed (ragweed [9]; 500 g ai/ha, postemergence): 40
- Plant response rating, Ragweed (ragweed [9]; Postemergence, 125 g ai/ha): 30
- Plant response rating, Pigweed, Palmer (pigweed, palmer [10]; 500 g ai/ha, postemergence): 50
- Plant response rating, Pigweed, Palmer (pigweed, palmer [10]; Postemergence, 125 g ai/ha): 30
- Barnyardgrass plant response rating (barnyardgrass [11]; [24]): 90
- Plant response rating, Barnyardgrass (barnyardgrass [11]; [25]): 50
- Plant response rating, Barnyardgrass (barnyardgrass [12]; 500 g ai/ha, postemergence): 90
- Plant response rating, Barnyardgrass (barnyardgrass [12]; Postemergence, 125 g ai/ha): 40
- Plant response rating, Soybean (soybean [13]; 500 g ai/ha, postemergence): 100
- Plant response rating, Soybean (soybean [13]; Postemergence, 125 g ai/ha): 100
- Corn plant response rating (corn [14]; [24]): 70
- Plant response rating, Corn (corn [14]; [25]): 20
- Kochia plant response rating (kochia [15]; [24]): 90
- Plant response rating, Kochia (kochia [15]; [25]): 20
- Plant response rating, Horseweed (horseweed; 500 g ai/ha, postemergence): 60
- Plant response rating, Horseweed (horseweed; Postemergence, 125 g ai/ha): 0
- Wheat plant response rating (wheat [16]; [24]): 90
- Plant response rating, Wheat (wheat [16]; [25]): 40
- Pigweed, Palmer plant response rating (pigweed, palmer [17]; [24]): 90
- Plant response rating, Pigweed, Palmer (pigweed, palmer [17]; [25]): 50
- Plant response rating, Sedge, Umbrella (Flood) (sedge, umbrella): 70
- Blackgrass plant response rating (blackgrass [18]; [24]): 90
- Plant response rating, Blackgrass (blackgrass [18]; [25]): 90
- Plant response rating, Rice (Flood) (rice): 0
- Plant response rating, Oat, Wild (oat, wild [19]; 500 g ai/ha, postemergence): 90
- Plant response rating, Oat, Wild (oat, wild [19]; Postemergence, 125 g ai/ha): 40
- Plant response rating, Barnyardgrass (Flood) (barnyardgrass [20]): 15
- Plant response rating, Ryegrass, Italian (ryegrass, Italian [21]; 500 g ai/ha, postemergence): 80
- Plant response rating, Ryegrass, Italian (ryegrass, Italian [21]; Postemergence, 125 g ai/ha): 40
- Plant response rating, Galium (galium; 500 g ai/ha, postemergence): 100
- Plant response rating, Galium (galium; Postemergence, 125 g ai/ha): 70
- Foxtail, Giant plant response rating (foxtail, giant [22]; [24]): 100
- Plant response rating, Foxtail, Giant (foxtail, giant [22]; [25]): 100
- Plant response rating, Ducksalad (Flood) (ducksalad): 25
- Plant response rating, Foxtail, Giant (foxtail, giant [23]; 500 g ai/ha, postemergence): 90
- Plant response rating, Foxtail, Giant (foxtail, giant [23]; Postemergence, 125 g ai/ha): 60
